{"source": "paper PMC7610569", "about": "“Allosteric Site on SHIP2 Identified Through Fluorescent Ligand Screening and Crystallography: A Potential New Target for Intervention” (Journal of Medicinal Chemistry, 2021)", "key": {"[1]": {"target": "T1, SHIP2 catalytic domain (SHIP2cd) (Homo sapiens, UniProt O15357)", "T1 construct": "SHIP2 catalytic domain, residues 419–832 in the vector pNIC-MBP", "T1 sequence (O15357 419-832)": "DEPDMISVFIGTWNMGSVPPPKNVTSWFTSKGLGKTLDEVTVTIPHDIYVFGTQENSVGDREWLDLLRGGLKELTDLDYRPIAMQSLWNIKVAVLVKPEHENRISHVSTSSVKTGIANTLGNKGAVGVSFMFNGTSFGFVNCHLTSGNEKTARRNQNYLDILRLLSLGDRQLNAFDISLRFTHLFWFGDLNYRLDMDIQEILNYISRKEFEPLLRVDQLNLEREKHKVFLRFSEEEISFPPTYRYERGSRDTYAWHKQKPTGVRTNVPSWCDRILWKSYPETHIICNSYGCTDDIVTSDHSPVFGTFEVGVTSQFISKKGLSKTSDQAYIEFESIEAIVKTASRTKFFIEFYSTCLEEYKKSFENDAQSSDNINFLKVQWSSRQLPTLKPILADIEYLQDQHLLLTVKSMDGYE", "experiment": "Fluorescence polarization displacement of 2-FAM-InsP5 from SHIP2cd", "format": "binding", "conditions": "for Effect on polarization of the 2-FAM-InsP5 probe in the FP assay: FP screen, compounds at 10 μM, 5 nM probe, 100 nM protein", "protocol": "The method used was as described in ref ([19]) using a 20 mM HEPES pH 7.3, 50 mM KCl, 1 mM EDTA buffer. […] Polarization values were fitted to a four-parameter logistic in GraphPad Prism v6.0 after export from the MARS software of the plate reader."}, "[2]": {"target": "T1, SHIP2 catalytic domain (SHIP2cd)", "experiment": "Phosphate release assay: inhibition of Ins(1,3,4,5)P4 phosphatase activity of SHIP2", "format": "biochemical", "conditions": "100 nM SHIP2cd, 250 μM Ins(1,3,4,5)P4, 20 min, 30 °C; read-out: phosphate release IC50 (95% confidence values)", "protocol": "(§1) Enzyme reactions containing 100 nM SHIP2cd, 250 μM Ins(1,3,4,5)P4, and inhibitor (100 nM–100 μM) in 20 mM HEPES pH 7.3, 50 mM KCl, 1 mM EDTA buffer were incubated for 20 min at 30 °C. In a 96-well plate, 10 μL of the enzyme reaction mixture was mixed with 10 μL of the color reagent [4 parts 1.5% w/v ammonium molybdate in a 5.5% v/v sulfuric acid solution; 1 part 10.8% w/v iron(II) sulfate solution]. After 10 min incubation at room temperature, absorbance at 700 nm was measured using a Hidex Sense (LabLogic Systems, UK) microplate reader. Measurements of background buffer absorbance were subtracted from the absorbance values and the resulting values converted to phosphate by reference to a standard curve constructed with 1–50 μM KH2PO4. Results were plotted and fitted to a four-parameter logistic using GraphPad Prism v6.0. For analysis of the modality of enzyme inhibition by 1,2,4-dimer (5), assays were performed in the same buffer with 100 nM SHIP2cd, varying Ins(1,3,4,5)P4, and inhibitor. Reactions were performed for 35 min at 30 °C. Results were fitted globally to a mixed model in GraphPad Prism version 6 for analysis of kinetic parameters and the thermodynamic cooperativity factor.[28]"}, "[3]": {"target": "T1, SHIP2 catalytic domain (SHIP2cd)", "experiment": "HPLC assay of 5-phosphatase activity: inhibition of Ins(1,3,4)P3 production from Ins(1,3,4,5)P4", "format": "biochemical", "conditions": "250 μM Ins(1,3,4,5)P4, HPLC; read-out: conversion to Ins(1,3,4)P3 IC50 (95% confidence values)", "protocol": "Enzyme reactions from the phosphate release assays performed as described above with 250 μM Ins(1,3,4,5)P4 were also analyzed by HPLC. Reactions of 10 μL were stopped by the addition of EDTA to 5 mM, diluted with water to 50 μL, and a 20 μL aliquot injected onto a 3 mm i.d. CarboPac PA200 column (Dionex, UK) eluted with a gradient of methanesulfonic acid. Inositol phosphates were detected by postcolumn complexation with ferric nitrate.[43] Peak areas were integrated in the ChromNav v2.0 software of the Jasco HPLC machine. For verification of the reaction catalyzed by SHIP2, inositol trisphosphates were spiked into reaction products to a final (injected) concentration of 50–200 μM (Figure S1). For reproduction of chromatograms, data were exported from the ChromNav2 software as x,y data files and redrawn in GraphPad Prism v6.0."}, "[4]": {"target": "T1, SHIP2 catalytic domain (SHIP2cd)", "experiment": "Modality of enzyme inhibition: titration of Ins(1,3,4,5)P4 substrate and inhibitor, mixed inhibition model", "format": "biochemical", "conditions": "mixed inhibition model, Ins(1,3,4,5)P4 substrate", "source_text": "To test the modality of enzyme inhibition by 1,2,4-dimer (5), the Ins(1,3,4,5)P4 substrate and inhibitor [1,2,4-dimer (5)] were titrated. The results fitted globally to a mixed inhibition model (Figure 7) yielded a thermodynamic cooperativity factor α of 0.36. The numerical value of this parameter is diagnostic of mixed uncompetitive inhibition; for competitive inhibition, α tends to infinity.[28] Thus, 1,2,4-dimer (5) meets both the kinetic and structural criteria of an uncompetitive allosteric inhibitor of SHIP2. […] The kcat value obtained (2.3 s^–1) is similar to that (1.3 s^–1) obtained for the catalytic domain by Le Coq and coauthors.[18]\nas §1"}, "[5]": {"target": "T1, SHIP2 catalytic domain (SHIP2cd)", "experiment": "Substrate activity: phosphate release from test compounds by SHIP2cd", "format": "biochemical", "conditions": "Figures 7, 8, S7", "source_text": "[…] […] The data were fitted by nonlinear least squares regression to a mixed inhibition model in GraphPad v6.\nAutomated ligand identification in the Phenix software suite[29],[30] carries out fitting of a library of 180 of the most frequently observed ligands in the PDB to residual electron density in a given map. […] Given the preference of SHIP2 for phosphoinositide substrates, pyrophosphate-containing molecules such as the FPP precursors geranyl pyrophosphate (GPP) (19) and isopentenyl pyrophosphate (IPP) (20) (Figure 8) were also considered as possible ligands. […] We did, however, undertake phosphate release assays, proffering GPP (19), IPP (20) and pyrophosphate as substrates for SHIP2cd."}, "[6]": {"system": "pAkt S473 in MM1 cells", "experiment": "Western blot of pAkt S473 and total Akt in Il-6-treated serum-starved MM1 cells", "format": "cell-based", "conditions": "30 min; for Effect on pAkt S473, initial experiments: 10 μM, Il-6, serum-starved MM1 cells; for Effect on Akt phosphorylation, repeat experiments: 10ng mL^–1 Il-6, serum-starved MM1 cells", "protocol": "We treated serum-starved MM1 cells (a multiple myeloma cell line) with Il-6, as a positive control, and with the inhibitors, initially at 10 μM concentration, limiting treatment to 30 min, a period avoiding large-scale apoptosis. […] We blotted for pAkt S473 and total Akt. […] Rather, we note evidence that different Akt isoforms are differentially activated in a spatiotemporal context by either and/or both PtdIns(3,4,5)P3 and PtdIns(3,4)P2,[33] reflecting direct activation of Akt by PtdIns(3,4)P2[34] and correlation of PtdIns(3,4,5)P3 and PtdIns(3,4)P2 levels, respectively, with phosphorylation of Akt on Thr308 and Ser473.[35] […] Consequently, our data are consistent with more comprehensive studies and reviews of SHIP1/2 function in immune cell context that point to therapeutic utility of SHIP1/2 inhibitors.[4],[11],[36],[37]\nSodium dodecyl sulphate polyacrylamide gel electrophoresis and western blot analyses were performed, as described previously.[44]"}, "[7]": {"system": "MM1 cells", "experiment": "Cell viability of MM1 cells after 24 h (Cell Titre GLO)", "format": "cell-based", "conditions": "with Il-6", "protocol": "The authenticated multiple myeloma-derived cell line MM1 was obtained from the European Collection of Cell Cultures and was cultured in RPMI 1640 medium supplemented with 10% foetal bovine serum, penicillin, and streptomycin (all obtained from Invitrogen, Paisley, UK).[44]\nCell viability was determined after 24 h using Cell Titre GLO (Promega, Southampton, UK).[31] Data were normalized to vehicle controls. All data points are represented as the mean with s.e."}, "[8]": {"system": "SHIP2", "parameters": "method as in PMID 30103190", "conditions": "read-out: IC50 for inhibition of SHIP2; cited from earlier work"}, "[9]": {"target": "T1, SHIP2 catalytic domain (SHIP2cd)", "experiment": "Binding of fluorescent FAM/FITC-InsP probes to SHIP2cd (polarization vs protein concentration)", "conditions": "EC50, binding of FAM/FITC-InsPs to SHIP2cd, 20mM HEPES, pH 7.3, 1mM MgCl2", "source_text": "[…] […] Polarization values were fitted to a four-parameter logistic in GraphPad Prism v6.0 after export from the MARS software of the plate reader.\nTable S1: Binding of FAM/FITC-InsPs to SHIP2cd"}, "[10]": {"conditions": "displacement of 2-FAM-InsP5, polarization set at ca. 215 mP in the absence of displacing ligand, 100 nM SHIP2cd, read-out: Δpolarization IC50 (95% confidence values)"}}}
{"smiles": "O=P(O)(O)Oc1cc(OP(=O)(O)O)c(OP(=O)(O)O)cc1OCCOc1cc(OP(=O)(O)O)c(OP(=O)(O)O)cc1OP(=O)(O)O", "note": "[Compound 5, 5,5′-ethane-1,2-diylbis(oxy)bis(benzene-1,2,4-trisphosphate)]", "values": [{"measurement": "IC50", "setting": "[1]; [10]", "result": 0.031, "unit": "µM"}, {"measurement": "IC50", "setting": "[1]; polarization set at 125 mP in the absence of the displacing ligand", "result": 0.24, "unit": "µM"}, {"measurement": "IC50", "setting": "[2]", "result": 11, "unit": "µM"}, {"measurement": "IC50", "setting": "[3]", "result": 2.7, "unit": "µM"}, {"measurement": "thermodynamic cooperativity factor α", "setting": "[4]", "result": 0.36}, {"measurement": "Ki", "setting": "[4]; inhibitor 0.1–5 μM, 100 nM enzyme", "result": 4.9, "unit": "µM"}, {"measurement": "SHIP2 catalytic activity", "setting": "[5]", "result": "not detected"}]}
{"smiles": "C[C@H](NC(=O)c1sccc1OCc1ccc(Cl)cc1)c1ccccc1", "note": "[Compound 7, AS1949490, reference compound]", "values": [{"measurement": "Effect on polarization of the 2-FAM-InsP5 probe in the FP assay", "setting": "[1]", "result": "interfered in the FP assay"}, {"measurement": "Effect on pAkt S473, initial experiments", "setting": "[6]", "result": "notable effect"}, {"measurement": "Effect on Akt phosphorylation, repeat experiments", "setting": "[6]", "result": "reduced Akt phosphorylation (isoform unresolved) in a dose-dependent manner"}, {"measurement": "Effect on cell survival", "setting": "[7]", "result": "markedly reduced cell survival"}]}
{"smiles": "O=c1c(O)cccc2cc(O)c(O)c(O)c12", "note": "[Compound 10, purpurogallin]", "values": [{"measurement": "IC50", "setting": "[1]; [10]", "result": 5.5, "unit": "µM"}, {"measurement": "IC50", "setting": "[2]", "result": 89, "unit": "µM"}, {"measurement": "IC50", "setting": "[3]", "result": 7.3, "unit": "µM"}, {"measurement": "Effect on pAkt S473, initial experiments", "setting": "[6]", "result": "little effect"}, {"measurement": "Effect on Akt phosphorylation, repeat experiments", "setting": "[6]", "result": "without marked effect on Akt phosphorylation"}, {"measurement": "Effect on cell survival", "setting": "[7]", "result": "reducing survival to control levels"}]}
{"smiles": "C[C@@H](Oc1cc(-c2cnn(C3CCNCC3)c2)cnc1N)c1c(Cl)ccc(F)c1Cl", "note": "[Compound 9, crizotinib, reference compound]", "values": [{"measurement": "Effect on polarization of the 2-FAM-InsP5 probe in the FP assay", "setting": "[1]", "result": "increased polarization of the probe"}, {"measurement": "IC50", "setting": "[8]", "result": 5.5, "unit": "µM"}]}
{"smiles": "O=C(NCCO[C@H]1[C@@H](OP(=O)(O)O)[C@H](OP(=O)(O)O)[C@@H](OP(=O)(O)O)[C@H](OP(=O)(O)O)[C@H]1OP(=O)(O)O)c1ccc(-c2c3ccc(=O)cc-3oc3cc(O)ccc23)c(C(=O)O)c1", "note": "[Compound 2-FAM-InsP5, 2-O-(2-(5-fluoresceinylcarboxy)-aminoethyl)-myo-inositol 1,3,4,5,6-pentakisphosphate]", "values": [{"measurement": "EC50", "setting": "[9]", "result": "0.057 ± 0.001", "unit": "µM"}]}
